How the values were obtained:
[1] = biological target: T1, THRβ (Homo sapiens, UniProt P10828); assay: Reporter gene (GAL4-THRβ-LBD / Dual-Glo luciferase) agonist activity assay in HEK293T cells; format: cell-based; details: ratio of reporter gene EC50 values THRα/THRβ
T1 construct: expressed in transfected cells; host or cells: HEK293T
T1 sequence (P10828 217-461): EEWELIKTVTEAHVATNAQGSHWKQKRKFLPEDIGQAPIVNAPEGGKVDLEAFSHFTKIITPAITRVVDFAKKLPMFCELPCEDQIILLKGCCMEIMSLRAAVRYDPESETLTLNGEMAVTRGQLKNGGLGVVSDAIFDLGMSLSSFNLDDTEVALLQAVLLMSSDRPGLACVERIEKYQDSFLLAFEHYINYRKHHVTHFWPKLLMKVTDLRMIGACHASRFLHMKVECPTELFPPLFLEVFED
Source text: Experimental Example 1: Detection of THRα and THRβ Agonist Activities of Compounds Based on Reporter Gene Activity Assay Method
1.1 Construction and Preparation of Plasmids pGAL4-THR-LBD and pG5-Luc
The pGAL4-THRα-LBD and pGAL4-THRβ-LBD plasmids used in the reporter gene assay system were constructed by a conventional molecular cloning method comprising the following main steps: the cDNA sequences of THRα (NM_003250) and THRβ (NM_000461) corresponding to the amino acid sequences of THRα (163-407AA) and THRβ (217-461AA) were inserted into the BamHI and NotI enzyme digestion sites of the pGAL4 vector by the PCR technique respectively to obtain the pGAL4-THRα-LBD and pGAL4-THRβ-LBD plasmids; the pG5-Luc (#E249A) and pRL-TK (#E2241) plasmids were purchased from Promega; the plasmids were transfected into the E. coli DH5α by the CaCl2 method, and after further culture and amplification, the plasmids were purified by Plasmid Extraction Kits (TIANGEN, #D107) to obtain the corresponding plasmid DNAs.
1.2 Co-Transfection of Plasmids into HEK293T Cells and Treatment with Compounds
The HEK293T cells were inoculated into a 96-well plate at a density of 1×10^4/well the day before plasmid transfection. Cell transfection was conducted according to the instructions of the transfection reagent FuGENE® HD (Promega, #E2311). The main steps were as follows: taking one well as an example here, the plasmids pGAL4-THRα-LBD or pGAL4-THRβ-LBD, pG5-Luc, and pRL-TK were added in the proportions of 20 ng, 50 ng, and 5 ng to 10 μL of Opti-MEM™ I medium (Gibco, #11058021) and mixed well; subsequently, 0.25 uL of FuGENE® HD was added, mixed well, and then left at room temperature for 5 min; afterwards, 10 μL of the mixture was added to the cell wells containing 100 μL of culture medium. After cell co-transfection for 6 h, the compound was diluted in a 3-fold gradient with dimethyl sulfoxide at the highest concentration of 1 uM. The compound was added to the cell culture medium at a total of 10 concentrations for treatment for 24 h. There were a total of two duplicate wells for each concentration. Triiodothyronine (T3) was used as the positive control.
1.3 Dual-Glo Luciferase Assay
After the cells were treated with the compound for 24 h, the cells were assayed according to the instructions of Dual-Glo® Luciferase Assay System (Promega, #E2940). The main steps were as follows: 50 μL of culture medium was aspirated from each well and discarded, and then 50 μL of Dual-Glo® Luciferase reagent was added and oscillated at room temperature for 10 min; 80 μL of lysis reaction solution was measured into a white opaque optiPlate-96-well plate, and the luminescence signal value (Firefly-Luc) of the Firefly luciferase was detected using an MD i3x multi-mode microplate reader; 40 μL of Dual-Glo® Stop & Glo® reagent was then added, and oscillated at room temperature for 10 min; the luminescence signal value (Renilla-Luc) of the Renilla luciferase was then detected using an MD i3x multi-mode microplate reader. The Firefly-Luc/Renilla-Luc ratio was used as the activation activity of the compound against THR, and the ratio in the solvent DMSO group was used for normalization; the dose-response curve was fitted with four parameters using the GraphPad Prism6.0 software, and the EC50 value was calculated.

[2] = biological target: T2, THRβ (Homo sapiens, UniProt P10828); assay: Time-resolved FRET (THR-FRET) agonist activity assay, GST-tagged THRβ LBD with SRC2 polypeptide; format: biochemical; details: ratio of THR-FRET EC50 values THRα/THRβ
T2 construct: made in house; host or cells: E. coli BL21 (DE3)
T2 sequence (P10828 217-461 limits assumed): T1 sequence (P10828 217-461)
Source text: Experimental Example 2: Detection of Agonist Activities of Compounds Against THRα/β Based on Time-Resolved Fluorescence Resonance Energy Transfer (THR-FRET)
By visiting NCBI, the THRα/β LBD domain sequences were found. The pET21-His-GST-dLBT-THRα LBD and pET21-His-GST-dLBT-THRβ LBD overexpression vectors were constructed by the fusion method, and sequenced to confirm the accuracy of the sequences.
The correctly sequenced THRα LBD and THRβ LBD overexpression vectors were transfected into E. coli cells BL21 (DE3), and spread on an agar plate with ampicillin. Monoclones were picked out and amplified in an LB medium, and transferred into 1 L LB at a ratio of 1:100 for large-scale culture. When the OD value was at 0.8 to 1.2, 0.5 mM isopropyl-beta-D-thiogalactopyranoside (IPTG) was added, and induced overnight at 18° C. The bacteria were harvested, disrupted, and purified via the GST column and the molecular sieve to obtain two proteins His-GST-dLBT-THRα LBD and His-GST-dLBT-THRβ LBD.
The proteins were taken out from a refrigerator at −80° C. The proteins with the GST-tagged THRα/β LBD domain and the Eu-labelled GST antibodies were thawed slowly on ice, and an assay buffer containing a final concentration of 5 mM dithiothreitol (DTT) was formulated.
The starting concentration of the compound was 100 μM (in DMSO). The compound (100 μM in DMSO) was subjected to 3-fold isogradient dilution with DMSO to obtain a total of 11 isogradient concentrations. Subsequently, the above compounds at the isogradient concentration were further subjected to 50-fold dilution with an assay buffer containing 5 mM DTT.
The final concentrations of all components were calculated based on a system with a final volume of 20 μL per well. To 18 μL of assay buffer containing 5 mM DTT, the GST-tagged THRα/β proteins, the SRC2 ([…]) polypeptide, XL665 (Cisobio, #610SAXLB), and the Eu-labeled GST antibody were added, and the final concentrations were 2 nM, 200 nM, 0.05 nM, and 7.6 nM respectively to formulate 18 μL of reaction mixture of the proteins, polypeptide, and antibody per well.
18 μL of reaction mixture and 2 μL of diluted compound were added into an optiplate-384-well plate, and reacted at room temperature for 24 h.
The plate was read using an MD i3X multi-mode microplate reader with the excitation and emission wavelengths of 340 nm and 665 nm, respectively. The intensity of light at a wavelength of 616 nm generated by europium excited by 340 nm wavelength light from the MD i3X multi-mode microplate reader was used as the background. According to the different activation degrees of different compounds against THRα and THRβ, the intensity of the emission light at a wavelength of 665 nm generated by exciting XL665 with the exciting light at a wavelength of 616 nm was varied. The intensity ratio between these two light wavelengths (665 nm, 616 nm) was used as the activation activity of the compound against THRα or THRβ, and the ratio in the solvent DMSO group was used for normalization. The dose-response curve was fitted with four parameters using the GraphPad Prism 6.0 software, and the EC50 value was calculated.

| Selectivity (THRα/THRβ) [1] | Selectivity (THRα/THRβ) [2] | SMILES |
| --- | --- | --- |
| † (†: 5 ≥ THRα/β;) | †† (††: 10 ≥ THRα/β;) | NC(=O)c1sccc1OCc1c(Cl)cc(-n2ncc(=O)[nH]c2=O)cc1Cl [Compound 45] |
| † (†: 5 ≥ THRα/β;) | †† (††: 10 ≥ THRα/β;) | [2H]C(Oc1ccccc1C(=O)NC([2H])([2H])[2H])c1c(Br)cc(-n2nc(C([2H])(F)F)c(=O)[nH]c2=O)cc1Br (stereo not drawn) [Compound 113] |
| † (†: 5 ≥ THRα/β;) | †† (††: 10 ≥ THRα/β;) | [2H]C([2H])([2H])NC(=O)c1ccccc1OCc1c(Br)cc(-n2nc(C([2H])(F)F)c(=O)[nH]c2=O)cc1Br [Compound 112] |
| † (†: 5 ≥ THRα/β;) | †† (††: 10 ≥ THRα/β;) | NC(=O)c1ccccc1OCc1c(Cl)cc(-n2nc(C(F)F)c(=O)[nH]c2=O)cc1Cl [Compound 54] |
| † (†: 5 ≥ THRα/β;) | †† (††: 10 ≥ THRα/β;) | CNC(=O)c1ccccc1OCc1c(Cl)cc(-n2nc(C(F)F)c(=O)[nH]c2=O)cc1Cl [Compound 53] |
| † (†: 5 ≥ THRα/β;) | †† (††: 10 ≥ THRα/β;) | [2H]C(Oc1ccccc1C(=O)NC)c1c(Br)cc(-n2nc(C(F)F)c(=O)[nH]c2=O)cc1Br (stereo not drawn) [Compound 106] |
| † (†: 5 ≥ THRα/β;) | †† (††: 10 ≥ THRα/β;) | [2H]C(F)(F)c1nn(-c2cc(Br)c(COc3ccccc3C(=O)NC)c(Br)c2)c(=O)[nH]c1=O [Compound 107] |
| – | ††† (†††: 20 ≥ THRα/β > 10;) | Cc1ccc(C(N)=O)c(OCc2c(Cl)cc(-n3ncc(=O)[nH]c3=O)cc2Cl)c1 [Compound 33] |
| – | ††† (†††: 20 ≥ THRα/β > 10;) | O=C(O)c1ccccc1NCc1c(Cl)cc(-n2ncc(=O)[nH]c2=O)cc1Cl [Compound 26] |
| – | †† (††: 10 ≥ THRα/β;) | O=C(NO)c1ccccc1OCc1c(Cl)cc(-n2ncc(=O)[nH]c2=O)cc1Cl [Compound 42] |
| – | †† (††: 10 ≥ THRα/β;) | CNC(=O)c1ccccc1Oc1c(Cl)cc(-n2ncc(=O)[nH]c2=O)cc1Cl [Compound 114, reference compound] |
| – | †† (††: 10 ≥ THRα/β;) | CNC(=O)c1ccccc1SCc1c(Cl)cc(-n2nc(C(F)F)c(=O)[nH]c2=O)cc1Cl [Compound 55] |

The next lines start with the compound.

| SMILES | Selectivity (THRα/THRβ) [1] | Selectivity (THRα/THRβ) [2] |
| --- | --- | --- |
| CNC(=O)c1ccccc1OCc1c(Cl)cc(-n2ncc(=O)[nH]c2=O)cc1Cl [Compound 17] | † (†: 5 ≥ THRα/β;) | †† (††: 10 ≥ THRα/β;) |
| CNC(=O)c1ccccc1SCc1c(Cl)cc(-n2ncc(=O)[nH]c2=O)cc1Cl [Compound 20] | – | ††† (†††: 20 ≥ THRα/β > 10;) |
| CNC(=O)c1ccccc1SCc1c(Br)cc(-n2nc(C#N)c(=O)[nH]c2=O)cc1Br [Compound 13] | – | †† (††: 10 ≥ THRα/β;) |
| O=C(O)c1ccccc1SCc1c(Cl)cc(-n2ncc(=O)[nH]c2=O)cc1Cl [Compound 18] | – | ††† (†††: 20 ≥ THRα/β > 10;) |
| CCNC(=O)c1ccccc1SCc1c(Cl)cc(-n2ncc(=O)[nH]c2=O)cc1Cl [Compound 24] | – | †† (††: 10 ≥ THRα/β;) |
| NC(=O)c1ccccc1SCc1c(Cl)cc(-n2ncc(=O)[nH]c2=O)cc1Cl [Compound 19] | – | ††† (†††: 20 ≥ THRα/β > 10;) |
| N#Cc1nn(-c2cc(Cl)c(CNc3ccccc3C(=O)O)c(Cl)c2)c(=O)[nH]c1=O [Compound 10] | – | ††† (†††: 20 ≥ THRα/β > 10;) |
| CNC(=O)c1ccccc1SCc1c(Br)cc(-n2ncc(=O)[nH]c2=O)cc1Br [Compound 25] | † (†: 5 ≥ THRα/β;) | ††† (†††: 20 ≥ THRα/β > 10;) |
| NC(=O)c1ccccc1OCc1c(Cl)cc(-n2ncc(=O)[nH]c2=O)cc1Cl [Compound 14] | † (†: 5 ≥ THRα/β;) | †† (††: 10 ≥ THRα/β;) |
| N#Cc1nn(-c2cc(Cl)c(COc3ccccc3C(N)=O)c(Cl)c2)c(=O)[nH]c1=O [Compound 1] | – | †† (††: 10 ≥ THRα/β;) |
| CC(C)NC(=O)c1ccccc1SCc1c(Cl)cc(-n2ncc(=O)[nH]c2=O)cc1Cl [Compound 22] | – | ††† (†††: 20 ≥ THRα/β > 10;) |
| CNC(=O)c1ccccc1SCc1c(Cl)cc(-n2nc(C#N)c(=O)[nH]c2=O)cc1Cl [Compound 7] | – | ††† (†††: 20 ≥ THRα/β > 10;) |
| CNC(=O)c1ccccc1NCc1c(Cl)cc(-n2nc(C#N)c(=O)[nH]c2=O)cc1Cl [Compound 9] | – | †† (††: 10 ≥ THRα/β;) |
| CNC(=O)c1ccccc1OCc1c(Cl)cc(-n2nc(C#N)c(=O)[nH]c2=O)cc1Cl [Compound 2] | – | †† (††: 10 ≥ THRα/β;) |
| N#Cc1nn(-c2cc(Cl)c(CSc3ccccc3C(=O)O)c(Cl)c2)c(=O)[nH]c1=O [Compound 6] | – | ††† (†††: 20 ≥ THRα/β > 10;) |
| N#Cc1nn(-c2cc(Br)c(COc3ccccc3C(N)=O)c(Br)c2)c(=O)[nH]c1=O [Compound 11] | – | †† (††: 10 ≥ THRα/β;) |
| CNC(=O)c1ccccc1OCc1c(Br)cc(-n2nc(C#N)c(=O)[nH]c2=O)cc1Br [Compound 12] | – | †† (††: 10 ≥ THRα/β;) |

From patent publication US20260048060A1, “POLYCYCLIC THYROID HORMONE b RECEPTOR AGONIST AND USE THEREOF” (CASCADE PHARMACEUTICALS, INC., priority 2022, published 2026)
